biological target: T1, hROMK (hKir1.1) (Homo sapiens, UniProt P48048); assay: Thallium Flux Assay (ROMK channel functional thallium flux, FLIPR-Tetra); type: cell-based; conditions: HEK293 cells stably expressing hROMK (hKir1.1); 30 min compound incubation
T1 construct: expressed in transfected cells
T1 sequence (P48048 1-391): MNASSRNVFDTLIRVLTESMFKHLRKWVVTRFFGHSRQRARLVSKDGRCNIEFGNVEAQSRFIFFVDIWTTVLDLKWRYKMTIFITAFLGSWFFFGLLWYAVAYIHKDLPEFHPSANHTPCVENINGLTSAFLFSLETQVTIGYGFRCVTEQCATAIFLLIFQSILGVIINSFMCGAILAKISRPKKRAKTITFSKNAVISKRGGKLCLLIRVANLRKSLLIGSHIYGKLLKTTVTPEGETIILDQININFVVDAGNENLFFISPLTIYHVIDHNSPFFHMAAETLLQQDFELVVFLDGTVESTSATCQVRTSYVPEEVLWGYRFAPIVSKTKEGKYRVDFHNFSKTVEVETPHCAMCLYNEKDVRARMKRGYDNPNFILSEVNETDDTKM
Method in brief: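 HEK293 cells stably expressing hKir1.1, loaded with FluxOR dye for 90 min, then preincubated with compound for 30 min at ambient temperature with 0.3 mM ouabain and probenecid. Stimulated with 3 mM thallium/0.3 mM potassium (final); fluorescence read ~10 min. Normalized to 3 μM reference ROMK inhibitor; IC50 from inhibition of flux.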

Row | IC50 [nM] | Compound
1 | 20 | CC1=C(N2CCC3(CCN(C[C@@H](O)c4nnc(-n5cnnn5)cc4C)CC3F)C2=O)COC1=O (single isomer, unassigned) [Example 199]
2 | 30 | CC1=C(N2C=CC3(CCN(C[C@H](O)c4nnc(-n5cnnn5)cc4C)CC3)C2=O)COC1=O [Example 154, 8-{(2S)-2-hydroxy-2-[4-methyl-6-(1H-tetrazol-1-yl)pyridazin-3-yl]ethyl}-2-(4-methyl-5-oxo-2,5-dihydrofuran-3-yl)-1-oxo-2-aza-8-azoniaspiro[4.5]dec-3-ene]
3 | 20 | COc1cc(-n2cnnn2)ccc1[C@H](O)CN1CCC2(CC1)CCN(C1=CC(=O)OC1)C2=O [Example 16, 8-{(2S)-2-hydroxy-2-[2-methoxy-4-(1H-tetrazol-1-yl)phenyl]ethyl}-1-oxo-2-(5-oxo-2,5-dihydrofuran-3-yl)-2-aza-8-azoniaspiro[4.5]decane]
4 | 330 | CC1OC(=O)C=C1N1CCC2(CCN(C[C@H](O)c3ccc(-n4cnnn4)nc3)CC2)C1=O (mixture of isomers) [Example 226, 8-((R)-2-(6-(1H-tetrazol-1-yl)pyridin-3-yl)-2-hydroxyethyl)-2-(2-methyl-5-oxo-2,5-dihydrofuran-3-yl)-2,8-diazaspiro[4.5]decan-1-one]
5 | 140 | CC1=C(N2CCC3(CCN(C[C@H](O)c4ccnc(-n5cnnn5)c4)CC3)C2=O)COC1=O [Example 129, 8-{(2R)-2-hydroxy-2-[2-(1H-tetrazol-1-yl)pyridin-4-yl]ethyl}-2-(4-methyl-5-oxo-2,5-dihydrofuran-3-yl)-1-oxo-2-aza-8-azoniaspiro[4.5]decane]
6 | 20 | CC1=C(N2C(=O)C3(CCN(CCc4ccc(-n5cnnn5)nn4)CC3)CC2C)COC1=O (racemic) [Example 241, 3-methyl-2-(4-methyl-5-oxo-2,5-dihydrofuran-3-yl)-1-oxo-8-{2-[6-(1H-tetrazol-1-yl)pyridazin-3-yl]ethyl}-2-aza-8-azoniaspiro[4.5]decane]
7 | 10 | CC1=C(N2C=CC3(CCN(CCc4ncc(-n5cnnn5)nc4C)CC3)C2=O)COC1=O [Example 263, 2-(4-methyl-5-oxo-2,5-dihydrofuran-3-yl)-8-{2-[3-methyl-5-(1H-tetrazol-1-yl)pyrazin-2-yl]ethyl}-1-oxo-2-aza-8-azoniaspiro[4.5]dec-3-ene]
8 | 10 | CC1=C(N2CCC3(CCN(CCc4nnc(-n5cnnn5)cc4C)CC3F)C2=O)COC1=O (single isomer, unassigned) [Example 268, 6-fluoro-2-(4-methyl-5-oxo-2,5-dihydrofuran-3-yl)-8-{2-[4-methyl-6-(1H-tetrazol-1-yl)pyridazin-3-yl]ethyl}-2,8-diazaspiro[4.5]decan-1-one]
9 | 20 | CO[C@@H](CN1CCC2(CC1)CCN(C1=C(C)C(=O)OC1)C2=O)c1ccc(-n2cnnn2)nc1 [Example 289, (R)-8-(2-(6-(1H-tetrazol-1-yl)pyridin-3-yl)-2-methoxyethyl)-2-(4-methyl-5-oxo-2,5-dihydrofuran-3-yl)-2,8-diazaspiro[4.5]decan-1-one]
10 | 80 | CC1=C(N2CCC3(CCN(C[C@@H](C)c4ccc(-n5cnnn5)nn4)CC3)C2=O)COC1=O (single isomer, unassigned) [Example 291]
11 | 190 | CC1=C(N2CCC3(CCN(C[C@@H](O)c4c(F)cc(-n5cnnn5)cc4F)CC3)C2=O)COC1=O [Example 143, 8-{(2S)-2-[2,6-difluoro-4-(1H-tetrazol-1-yl)phenyl]-2-hydroxyethyl}-2-(4-methyl-5-oxo-2,5-dihydrofuran-3-yl)-1-oxo-2-aza-8-azoniaspiro[4.5]decane]
12 | 100 | CC1=C(N2C=CC3(CCN(C[C@H](O)c4cnc(-n5cnnn5)cn4)CC3)C2=O)COC1=O [Example 163, 8-{(2S)-2-hydroxy-2-[5-(1H-tetrazol-1-yl)pyrazin-2-yl]ethyl}-2-(4-methyl-5-oxo-2,5-dihydrofuran-3-yl)-1-oxo-2-aza-8-azoniaspiro[4.5]dec-3-ene]
13 | 40 | CC1CC2(CCN(CCc3cnc(-n4cnnn4)cn3)CC2)C(=O)N1C1=CC(=O)OC1 (single isomer, unassigned) [Example 242, 3-methyl-1-oxo-2-(5-oxo-2,5-dihydrofuran-3-yl)-8-{2-[5-(1H-tetrazol-1-yl)pyrazin-2-yl]ethyl}-2-aza-8-azoniaspiro[4.5]decane]
14 | 50 | O=C1C=C(N2C(=O)C3(CCN(C[C@H](O)c4ccc(-n5cnnn5)cn4)CC3)CC2C2CC2)CO1 (mixture of isomers) [Example 223, 3-cyclopropyl-8-{(2S)-2-hydroxy-2-[5-(1H-tetrazol-1-yl)pyridin-2-yl]ethyl}-2-(5-oxo-2,5-dihydrofuran-3-yl)-2,8-diazaspiro[4.5]decan-1-one]
15 | 10 | COc1cc(-n2cnnn2)ccc1[C@@H](O)CN1CCC2(CC1)CCN(C1=C(C)C(=O)OC1)C2=O [Example 119, 8-{(2R)-2-hydroxy-2-[2-methoxy-4-(1H-tetrazol-1-yl)phenyl]ethyl}-2-(4-methyl-5-oxo-2,5-dihydrofuran-3-yl)-1-oxo-2-aza-8-azoniaspiro[4.5]decane]
16 | 10 | C[C@@H]1CC2(CCN(C[C@H](O)c3ccc(-n4cnnn4)nc3)CC2)C(=O)N1C1=CC(=O)OC1 [Example 83, (3R)-8-{(2R)-2-hydroxy-2-[6-(1H-tetrazol-1-yl)pyridin-3-yl]ethyl}-3-methyl-1-oxo-2-(5-oxo-2,5-dihydrofuran-3-yl)-2-aza-8-azoniaspiro[4.5]decane]
17 | 1530 | CC1OC(=O)C=C1N1C(=O)C2(CCN(C[C@H](O)c3ccc(-n4cnnn4)nc3)CC2)C[C@H]1C (single isomer, unassigned) [Example 231]
18 | 10 | CC1=C(N2CCC3(CCN(C[C@H](O)c4ccc(-n5cnnn5)cn4)CC3)C2=O)COC1=O [Example 22, 8-{(2S)-2-hydroxy-2-[5-(1H-tetrazol-1-yl)pyridin-2-yl]ethyl}-2-(4-methyl-5-oxo-2,5-dihydrofuran-3-yl)-1-oxo-2-aza-8-azoniaspiro[4.5]decane]
19 | 50 | CC1=C(N2CCC3(CCN(C[C@H](OC(C)C)c4ccc(-n5cnnn5)nc4)CC3)C2=O)COC1=O [Example 285, 8-{(2R)-2-(1-methylethoxy)-2-[6-(1H-tetrazol-1-yl)pyridin-3-yl]ethyl}-2-(4-methyl-5-oxo-2,5-dihydrofuran-3-yl)-1-oxo-2-aza-8-azoniaspiro[4.5]decane]
20 | 20 | CC1=C(N2C=CC3(CCN(CCc4ccc(-n5cnnn5)nn4)CC3)C2=O)COC1=O [Example 247, 2-(4-methyl-5-oxo-2,5-dihydrofuran-3-yl)-1-oxo-8-{2-[6-(1H-tetrazol-1-yl)pyridazin-3-yl]ethyl}-2-aza-8-azoniaspiro[4.5]dec-3-ene]
21 | 50 | CC1(C)CC2(CCN(C[C@@H](O)c3ccc(-n4cnnn4)nn3)CC2)C(=O)N1C1=CC(=O)OC1 [Example 190, 8-{(2R)-2-hydroxy-2-[6-(1H-tetrazol-1-yl)pyridazin-3-yl]ethyl}-3,3-dimethyl-1-oxo-2-(5-oxo-2,5-dihydrofuran-3-yl)-2-aza-8-azoniaspiro[4.5]decane]
22 | 170 | CC1=C(N2C(=O)C3(CCN(C[C@H](O)c4cnc(-n5cnnn5)cn4)CC3)CC2C)COC1=O (single isomer, unassigned) [Example 67]
23 | 10 | CC1=C(N2CCC3(CCN(C[C@@H](O)c4ccc(-n5cnnn5)cc4F)CC3)C2=O)COC1=O [Example 37, 8-{(2S)-2-[2-fluoro-4-(1H-tetrazol-1-yl)phenyl]-2-hydroxyethyl}-2-(4-methyl-5-oxo-2,5-dihydrofuran-3-yl)-1-oxo-2-aza-8-azoniaspiro[4.5]decane]
24 | 270 | O=C1C=C(N2C=CC3(CCN(C[C@H](O)c4cnc(-n5cnnn5)cn4)CC3)C2=O)CO1 [Example 152, 8-{(2S)-2-hydroxy-2-[5-(1H-tetrazol-1-yl)pyrazin-2-yl]ethyl}-1-oxo-2-(5-oxo-2,5-dihydrofuran-3-yl)-2-aza-8-azoniaspiro[4.5]dec-3-ene]

Row | Compound | IC50 [nM]
25 | CC1CC2(CC3CCC(C2)N3C[C@@H](O)c2ccc(-n3cnnn3)nc2)C(=O)N1C1=CC(=O)OC1 (single isomer, unassigned) [Example 101] | 6
26 | CC1=C(N2CCC3(CC4CCC(C3)N4C[C@@H](O)c3cc(C)c(-n4cnnn4)nn3)C2=O)COC1=O (stereo partly drawn) [Example 54, (1R,5R)-8-{(2R)-2-hydroxy-2-[5-methyl-6-(1H-tetrazol-1-yl)pyridazin-3-yl]ethyl}-1′-(4-methyl-5-oxo-2,5-dihydrofuran-3-yl)-2′-oxospiro[8-azoniabicyclo[3.2.1]octane-3,3′-pyrrolidine]] | 20
27 | CC1CC2(CC3CCC(C2)N3C[C@@H](O)c2cnc(-n3cnnn3)cn2)C(=O)N1C1=CC(=O)OC1 (single isomer, unassigned) [Example 90] | 40
28 | CC1=C(N2CCC3(CC4CCC(C3)N4C[C@H](O)c3nnc(-n4cnnn4)c(C)c3C)C2=O)COC1=O (stereo partly drawn) [Example 50, (1R,5R)-8-{(2S)-2-[4,5-dimethyl-6-(1H-tetrazol-1-yl)pyridazin-3-yl]-2-hydroxyethyl}-1′-(4-methyl-5-oxo-2,5-dihydrofuran-3-yl)-2′-oxospiro[8-azoniabicyclo[3.2.1]octane-3,3′-pyrrolidine]] | 20
29 | CC1CC2(CC3CCC(C2)N3C[C@H](O)c2cnc(-n3cnnn3)cn2)C(=O)N1C1=CC(=O)OC1 (single isomer, unassigned) [Example 89] | 30

Source: US9765074B2, “Inhibitors of the renal outer medullary potassium channel” (Merck Sharp & Dohme Corp., priority 2013, dated 2017)
